# Measured values: ChEMBL document CHEMBL4425168, “Dehydrozingerone Inspired Styryl Hydrazine Thiazole Hybrids as Promising Class of Antimycobacterial Agents” (ACS Med Chem Lett, 2016)
# Experiments:
# Type in all cases: functional, organism-based
# [1] = tested on: Mycobacterium tuberculosis; test: Antitubercular activity against Mycobacterium tuberculosis H37Rv INH-R1 harboring katG Y155 mutant after 5 days
# [2] = tested on: Mycobacterium tuberculosis; test: Antitubercular activity against Mycobacterium tuberculosis H37Rv RIF-R1 harboring nrpoB S522L mutant after 5 days
# [3] = tested on: Mycobacterium tuberculosis; test: Antitubercular activity against Mycobacterium tuberculosis H37Rv FQ-R1 harboring gyrB D94N mutant after 5 days
smiles,measurement,setting,value
COc1ccc(/C=C/C(C)=N/Nc2nc(-c3ccc(N)cc3)cs2)cc1OC,IC50,[1],0.68 µM
same,IC90,[1],3.8 µM
same,MIC,[1],3.2 µM
same,IC50,[2],0.54 µM
same,IC90,[2],2.6 µM
same,MIC,[2],2.2 µM
same,IC50,[3],2.3 µM
same,IC90,[3],33 µM
same,MIC,[3],21 µM
COc1ccc(/C=C/C(C)=N/NC(N)=S)cc1OC,IC50,[1],1.3 µM
same,IC90,[1],6.6 µM
same,MIC,[1],5.3 µM
same,IC50,[2],1.1 µM
same,IC90,[2],4.6 µM
same,MIC,[2],4 µM
same,IC50,[3],2.8 µM
same,IC90,[3],16 µM
same,MIC,[3],17 µM
COc1ccc(/C=C/C(C)=N/Nc2nc(-c3ccc(OC)c(OC)c3)cs2)cc1OC,IC50,[1],12 µM
same,IC90,[1],> 200 µM
same,MIC,[1],24 µM
same,IC50,[2],9.2 µM
same,IC90,[2],27 µM
same,MIC,[2],28 µM
same,IC50,[3],18 µM
same,IC90,[3],> 200 µM
same,MIC,[3],30 µM
COc1ccc(-c2csc(N/N=C(C)/C=C/c3ccc(OC)c(OC)c3)n2)cc1,IC50,[1],12 µM
same,IC90,[1],> 50 µM
same,MIC,[1],15 µM
same,IC50,[2],11 µM
same,IC90,[2],> 50 µM
same,MIC,[2],25 µM
same,IC50,[3],23 µM
same,IC90,[3],> 50 µM
same,MIC,[3],22 µM
COc1ccc(/C=C/C(C)=N/Nc2nc(-c3c(OC)cccc3OC)cs2)cc1OC,IC50,[1],9.1 µM
same,IC90,[1],> 25 µM
same,MIC,[1],32 µM
same,IC50,[2],7 µM
same,IC90,[2],19 µM
same,MIC,[2],17 µM
same,IC50,[3],13 µM
same,IC90,[3],> 25 µM
same,MIC,[3],33 µM
NNC(=O)c1ccncc1 [ISONIAZID],IC50,[1],> 200 µM
same,IC90,[1],> 200 µM
same,MIC,[1],>200 µM
same,IC50,[2],0.15 µM
same,IC90,[2],0.21 µM
same,MIC,[2],0.17 µM
same,IC50,[3],0.36 µM
same,IC90,[3],0.47 µM
same,MIC,[3],0.35 µM
C[C@H]1COc2c(N3CCN(C)CC3)c(F)cc3c(=O)c(C(=O)O)cn1c23.C[C@H]1COc2c(N3CCN(C)CC3)c(F)cc3c(=O)c(C(=O)O)cn1c23.O [LEVOFLOXACIN],IC50,[1],0.64 µM
same,IC90,[1],1.4 µM
same,MIC,[1],1.2 µM
same,IC50,[2],0.59 µM
same,IC90,[2],0.91 µM
same,MIC,[2],0.76 µM
same,IC50,[3],12 µM
same,IC90,[3],22 µM
same,MIC,[3],20 µM
CO[C@H]1/C=C/O[C@@]2(C)Oc3c(C)c(O)c4c(O)c(c(/C=N/N5CCN(C)CC5)c(O)c4c3C2=O)NC(=O)/C(C)=C\C=C\[C@H](C)[C@H](O)[C@@H](C)[C@@H](O)[C@@H](C)[C@H](OC(C)=O)[C@@H]1C [RIFAMPIN],IC50,[1],0.0084 µM
same,IC90,[1],0.022 µM
same,MIC,[1],0.018 µM
same,IC50,[2],1.2 µM
same,IC90,[2],2.3 µM
same,MIC,[2],2 µM
same,IC50,[3],0.013 µM
same,IC90,[3],0.039 µM
same,MIC,[3],0.027 µM
